Measurements published in patent US10765114B2, “4-amino-6-(pyridyl and 2-substitutedphenyl)-picolinates and 6-amino-2-(pyridyl and 2-substitutedphenyl)-pyrimidine-4-carboxylates and their use as herbicides” (Dow AgroSciences LLC, priority 2013, dated 2020).

Test system: Key Broadleaf Weed and Crop Species
Assay: Post-Emergent Test II (Table 5)
Type: in vivo
Conditions: Abutilon theophrasti, post-emergence, 336 h, ABUTH: velvetleaf (Abutilon theophrasti), application rate 70 (kg ai/ha; footnote: g ai/ha), read-out: Visual Growth Reduction (%) 14 Days After Application ABUTH
How it was run: (§1)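 Plants grown in a greenhouse (~15 h photoperiod, 23-29° C day) to first or second true leaf stage were sprayed post-emergence at 187 L/ha with compound in acetone/DMSO-based aqueous spray containing crop oil concentrate and surfactant, applied at a high rate plus ½× to 1/16× serial rates. Injury was scored visually 14 days later, 0-100% versus untreated plants.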

SMILES	pest or weed control at 70 g/ha [%]
COc1ccc(-c2nc(C(=O)O)c(Cl)c(N)c2F)cn1 [Compound 30]	95 to 100

Same assay, conditions: Abutilon theophrasti, post-emergence, 336 h, ABUTH: velvetleaf (Abutilon theophrasti), application rate 140 (kg ai/ha; footnote: g ai/ha), read-out: Visual Growth Reduction (%) 14 Days After Application ABUTH

SMILES	pest or weed control at 140 g/ha [%]
COc1ccc(-c2nc(C(=O)O)c(Cl)c(N)c2F)cn1 [Compound 30]	95 to 100

Same assay, conditions: Amaranthus retroflexus, post-emergence, 336 h, AMARE: redroot pigweed (Amaranthus retroflexus), application rate 70 (kg ai/ha; footnote: g ai/ha), read-out: Visual Growth Reduction (%) 14 Days After Application AMARE

SMILES	pest or weed control at 70 g/ha [%]
COc1ccc(-c2nc(C(=O)O)c(Cl)c(N)c2F)cn1 [Compound 30]	95 to 100

Same assay, conditions: Amaranthus retroflexus, post-emergence, 336 h, AMARE: redroot pigweed (Amaranthus retroflexus), application rate 140 (kg ai/ha; footnote: g ai/ha), read-out: Visual Growth Reduction (%) 14 Days After Application AMARE

SMILES	pest or weed control at 140 g/ha [%]
COc1ccc(-c2nc(C(=O)O)c(Cl)c(N)c2F)cn1 [Compound 30]	95 to 100

Same assay, conditions: Brassica napus, post-emergence, 336 h, BRSSS: oilseed rape, canola (Brassica napus), application rate 70 (kg ai/ha; footnote: g ai/ha), read-out: Visual Growth Reduction (%) 14 Days After Application BRSSS

SMILES	pest or weed control at 70 g/ha [%]
COc1ccc(-c2nc(C(=O)O)c(Cl)c(N)c2F)cn1 [Compound 30]	95 to 100

Same assay, conditions: Brassica napus, post-emergence, 336 h, BRSSS: oilseed rape, canola (Brassica napus), application rate 140 (kg ai/ha; footnote: g ai/ha), read-out: Visual Growth Reduction (%) 14 Days After Application BRSSS

SMILES	pest or weed control at 140 g/ha [%]
COc1ccc(-c2nc(C(=O)O)c(Cl)c(N)c2F)cn1 [Compound 30]	95 to 100

Same assay, conditions: Chenopodium album, post-emergence, 336 h, CHEAL: lambsquarters (Chenopodium album), application rate 70 (kg ai/ha; footnote: g ai/ha), read-out: Visual Growth Reduction (%) 14 Days After Application CHEAL

SMILES	pest or weed control at 70 g/ha [%]
COc1ccc(-c2nc(C(=O)O)c(Cl)c(N)c2F)cn1 [Compound 30]	95 to 100

Same assay, conditions: Chenopodium album, post-emergence, 336 h, CHEAL: lambsquarters (Chenopodium album), application rate 140 (kg ai/ha; footnote: g ai/ha), read-out: Visual Growth Reduction (%) 14 Days After Application CHEAL

SMILES	pest or weed control at 140 g/ha [%]
COc1ccc(-c2nc(C(=O)O)c(Cl)c(N)c2F)cn1 [Compound 30]	95 to 100

Same assay, conditions: Euphorbia heterophylla, post-emergence, 336 h, EPHHL: wild poinsettia (Euphorbia heterophylla), application rate 70 (kg ai/ha; footnote: g ai/ha), read-out: Visual Growth Reduction (%) 14 Days After Application EPHHL

SMILES	pest or weed control at 70 g/ha [%]
COc1ccc(-c2nc(C(=O)O)c(Cl)c(N)c2F)cn1 [Compound 30]	95 to 100

Same assay, conditions: Euphorbia heterophylla, post-emergence, 336 h, EPHHL: wild poinsettia (Euphorbia heterophylla), application rate 140 (kg ai/ha; footnote: g ai/ha), read-out: Visual Growth Reduction (%) 14 Days After Application EPHHL

SMILES	pest or weed control at 140 g/ha [%]
COc1ccc(-c2nc(C(=O)O)c(Cl)c(N)c2F)cn1 [Compound 30]	95 to 100

Same assay, conditions: Helianthus annuus, post-emergence, 336 h, HELAN: sunflower (Helianthus annuus), application rate 70 (kg ai/ha; footnote: g ai/ha), read-out: Visual Growth Reduction (%) 14 Days After Application HELAN

SMILES	pest or weed control at 70 g/ha [%]
COc1ccc(-c2nc(C(=O)O)c(Cl)c(N)c2F)cn1 [Compound 30]	95 to 100

Same assay, conditions: Helianthus annuus, post-emergence, 336 h, HELAN: sunflower (Helianthus annuus), application rate 140 (kg ai/ha; footnote: g ai/ha), read-out: Visual Growth Reduction (%) 14 Days After Application HELAN

SMILES	pest or weed control at 140 g/ha [%]
COc1ccc(-c2nc(C(=O)O)c(Cl)c(N)c2F)cn1 [Compound 30]	95 to 100

Same assay, conditions: Viola tricolor, post-emergence, 336 h, VIOTR: wild pansy (Viola tricolor), application rate 70 (kg ai/ha; footnote: g ai/ha), read-out: Visual Growth Reduction (%) 14 Days After Application VIOTR

SMILES	pest or weed control at 70 g/ha [%]
COc1ccc(-c2nc(C(=O)O)c(Cl)c(N)c2F)cn1 [Compound 30]	0 to 29

Same assay, conditions: Viola tricolor, post-emergence, 336 h, VIOTR: wild pansy (Viola tricolor), application rate 140 (kg ai/ha; footnote: g ai/ha), read-out: Visual Growth Reduction (%) 14 Days After Application VIOTR

SMILES	pest or weed control at 140 g/ha [%]
COc1ccc(-c2nc(C(=O)O)c(Cl)c(N)c2F)cn1 [Compound 30]	0 to 29

Test system: Key Grass and Sedge Weeds as well as Grass Crops
Assay: Post-Emergent Test II (Table 6)
Type: in vivo
Conditions: post-emergence, 336 h, CYPSS, 70 g ai/ha, 14 days after application, read-out: Visual Growth Reduction (%) 14 Days After Application CYPSS
How it was run: as §1

SMILES	pest or weed control at 70 g/ha [%]
COc1ccc(-c2nc(C(=O)O)c(Cl)c(N)c2F)cn1 [Compound 30]	0 to 29

Same assay, conditions: post-emergence, 336 h, CYPSS, 140 g ai/ha, 14 days after application, read-out: Visual Growth Reduction (%) 14 Days After Application CYPSS

SMILES	pest or weed control at 140 g/ha [%]
COc1ccc(-c2nc(C(=O)O)c(Cl)c(N)c2F)cn1 [Compound 30]	0 to 29

Same assay, conditions: post-emergence, 336 h, DIGSA: crabgrass (Digitaria sanguinalis), 70 g ai/ha, 14 days after application, read-out: Visual Growth Reduction (%) 14 Days After Application DIGSA

SMILES	pest or weed control at 70 g/ha [%]
COc1ccc(-c2nc(C(=O)O)c(Cl)c(N)c2F)cn1 [Compound 30]	60 to 74

Same assay, conditions: post-emergence, 336 h, DIGSA: crabgrass (Digitaria sanguinalis), 140 g ai/ha, 14 days after application, read-out: Visual Growth Reduction (%) 14 Days After Application DIGSA

SMILES	pest or weed control at 140 g/ha [%]
COc1ccc(-c2nc(C(=O)O)c(Cl)c(N)c2F)cn1 [Compound 30]	60 to 74

Same assay, conditions: post-emergence, 336 h, ECHSS, 70 g ai/ha, 14 days after application, read-out: Visual Growth Reduction (%) 14 Days After Application ECHSS

SMILES	pest or weed control at 70 g/ha [%]
COc1ccc(-c2nc(C(=O)O)c(Cl)c(N)c2F)cn1 [Compound 30]	95 to 100

Same assay, conditions: post-emergence, 336 h, ECHSS, 140 g ai/ha, 14 days after application, read-out: Visual Growth Reduction (%) 14 Days After Application ECHSS

SMILES	pest or weed control at 140 g/ha [%]
COc1ccc(-c2nc(C(=O)O)c(Cl)c(N)c2F)cn1 [Compound 30]	95 to 100

Same assay, conditions: post-emergence, 336 h, ORYSS (crop), 70 g ai/ha, 14 days after application, read-out: Visual Growth Reduction (%) 14 Days After Application ORYSS

SMILES	pest or weed control at 70 g/ha [%]
COc1ccc(-c2nc(C(=O)O)c(Cl)c(N)c2F)cn1 [Compound 30]	30 to 44

Same assay, conditions: post-emergence, 336 h, ORYSS (crop), 140 g ai/ha, 14 days after application, read-out: Visual Growth Reduction (%) 14 Days After Application ORYSS

SMILES	pest or weed control at 140 g/ha [%]
COc1ccc(-c2nc(C(=O)O)c(Cl)c(N)c2F)cn1 [Compound 30]	45 to 59

Same assay, conditions: post-emergence, 336 h, SETFA: giant foxtail (Setaria faberi), 70 g ai/ha, 14 days after application, read-out: Visual Growth Reduction (%) 14 Days After Application SETFA

SMILES	pest or weed control at 70 g/ha [%]
COc1ccc(-c2nc(C(=O)O)c(Cl)c(N)c2F)cn1 [Compound 30]	75 to 84

Same assay, conditions: post-emergence, 336 h, SETFA: giant foxtail (Setaria faberi), 140 g ai/ha, 14 days after application, read-out: Visual Growth Reduction (%) 14 Days After Application SETFA

SMILES	pest or weed control at 140 g/ha [%]
COc1ccc(-c2nc(C(=O)O)c(Cl)c(N)c2F)cn1 [Compound 30]	85 to 94

Same assay, conditions: post-emergence, 336 h, SORVU: grain sorghum (Sorghum vulgare), 70 g ai/ha, 14 days after application, read-out: Visual Growth Reduction (%) 14 Days After Application SORVU

SMILES	pest or weed control at 70 g/ha [%]
COc1ccc(-c2nc(C(=O)O)c(Cl)c(N)c2F)cn1 [Compound 30]	45 to 59

Same assay, conditions: post-emergence, 336 h, SORVU: grain sorghum (Sorghum vulgare), 140 g ai/ha, 14 days after application, read-out: Visual Growth Reduction (%) 14 Days After Application SORVU

SMILES	pest or weed control at 140 g/ha [%]
COc1ccc(-c2nc(C(=O)O)c(Cl)c(N)c2F)cn1 [Compound 30]	85 to 94

Same assay, conditions: post-emergence, 336 h, TRZSS (crop), 70 g ai/ha, 14 days after application, read-out: Visual Growth Reduction (%) 14 Days After Application TRZSS

SMILES	pest or weed control at 70 g/ha [%]
COc1ccc(-c2nc(C(=O)O)c(Cl)c(N)c2F)cn1 [Compound 30]	0 to 29

Same assay, conditions: post-emergence, 336 h, TRZSS (crop), 140 g ai/ha, 14 days after application, read-out: Visual Growth Reduction (%) 14 Days After Application TRZSS

SMILES	pest or weed control at 140 g/ha [%]
COc1ccc(-c2nc(C(=O)O)c(Cl)c(N)c2F)cn1 [Compound 30]	0 to 29

Same assay, conditions: post-emergence, 336 h, ZEAMX: maize, corn (Zea mays), 70 g ai/ha, 14 days after application, read-out: Visual Growth Reduction (%) 14 Days After Application ZEAMX

SMILES	pest or weed control at 70 g/ha [%]
COc1ccc(-c2nc(C(=O)O)c(Cl)c(N)c2F)cn1 [Compound 30]	95 to 100

Same assay, conditions: post-emergence, 336 h, ZEAMX: maize, corn (Zea mays), 140 g ai/ha, 14 days after application, read-out: Visual Growth Reduction (%) 14 Days After Application ZEAMX

SMILES	pest or weed control at 140 g/ha [%]
COc1ccc(-c2nc(C(=O)O)c(Cl)c(N)c2F)cn1 [Compound 30]	95 to 100

Test system: not given
Assay: not given
Conditions: not given

melting point [°C]	SMILES
166 to 167	COc1ccc(-c2nc(C(=O)O)c(Cl)c(N)c2F)cn1 [Compound 30]
